Tested on: OVA-sensitized and challenged BALB/c mice
Assay: Cytokines in BALF (CBA flow cytometry)
Type: in vivo, mouse
Experimental: Ten female BABL/c mice in each group were sensitized by an intraperitoneal (i.p.) injection of 20 μg of OVA emulsified in 2.25 mg aluminum hydroxide gel in a total volume of 100 μL on days 0 and 14. The mice were challenged via the airway by 1% OVA in saline for 30 min on Days 28, 29 and 30 by ultrasonic nebulization. Six weeks after the last of three primary OVA challenges, the mice were exposed to 1% OVA for 30 min by nebulization as a secondary challenge. AHR was assessed on Day 74 (48 h after 1% OVA provocation) in each group. […] For comparison, sham-treated mice were sensitized but challenged with saline instead of 1% OVA (non-challenged). The vehicle, a mixture of alcohol : DMSO : 30% HPβCD : saline (0.5 : 0.5 : 1 : 8 , v/v), or S-petasin was injected at a volume of 0.01 mL/g of body weight. AHR was measured in unrestrained animals by barometric plethysmography using a whole-body plethysmograph (WBP) and analyzed using software of Life Science Suite P3 Analysis Modules (Gould, LDS Test and Measurement LLC, Valley View, OH, USA). The mice were placed into the main chamber of the WBP, and the baseline enhanced pause (P enh) value was determined. Then the mice were nebulized first with phosphate-buffered saline (PBS), and subsequently with increasing doses (6.25–50 mg/mL) of MCh for 3 min for each nebulization, followed by readings of breathing parameters for 3 min after each nebulization with determination of P enh values. Twenty-four hours after the P enh determination, these mice were anesthetized with pentobarbital (50 mg/kg, i.p.), and lavaged via a tracheal tube with PBS (1 × 1.0 mL, 37°C). After lavage, blood was collected from the jugular vein and allowed to sit so that it would coagulate. The collected bronchoalveolar lavage fluid (BALF) and coagulated blood were, respectively, centrifuged at 630 g for 7 min and at 3700 g for 10 min at 4°C, respectively. After centrifugation, the supernatants of BALF and serum were stored at −20°C until the determinations of cytokines, including interleukin (IL)-2, IL-4, IL-5, tumor necrosis factor (TNF)-α and interferon (IFN)-γ by flow cytometric methods using mouse Th1/Th2 cytokine CBA kits, of total immunoglobulin E (IgE), and of total IgG2a using enzyme-linked immunosorbent assay (ELISA) kits (Pharmingen, San Diego, CA, USA) according to the respective recommendations of the manufacturer. OVA-specific IgE was measured as described previously with some modifications. Wells were coated with 100 μL of OVA (20 μg/mL) instead of the capture antibody. Levels are expressed in arbitrary units, where one arbitrary unit equals the optical density of the sample divided by the optical density of unchallenged mouse serum or BALF (standard). The pellet from BALF was re-suspended in ACK lysing buffer (1.658 g NH4Cl, 0.2 g KHCO3 and 1.44 mg EDTA in 200 mL of water) to lyse the residual erythrocytes in each sample. The number of inflammatory cells was counted using a hemocytometer (Hausser Scientific, Horsham, PA, USA). Cytospun slides were stained and differentiated in a blinded fashion by counting at least 100 cells under light microscopy.

C=C(C)[C@@H]1C[C@@]2(C)C(=CC1=O)CC[C@@H](OC(=O)/C=C\SC)[C@@H]2C [S-Petasin]
significantly suppressed: Increase in IL-4 level in BALF (30 μmol/kg s.c., exception at 10 μmol/kg) | Increase in IFN-γ level in BALF (10–30 μmol/kg s.c.) | Increase in IL-2 level in BALF (10–30 μmol/kg s.c.) | Increase in IL-5 level in BALF (10–30 μmol/kg s.c.) | Increase in TNF-α level in BALF (10–30 μmol/kg s.c.)

Reference: publication PMC3094704, “S-Petasin, the Main Sesquiterpene of Petasites formosanus, Inhibits Phosphodiesterase Activity and Suppresses Ovalbumin-Induced Airway Hyperresponsiveness” (Evidence-based Complementary and Alternative Medicine : eCAM, 2011)
